The values below come from patent US20250376474A1, “RET-LDD PROTEIN DEGRADERS” (Bristol-Myers Squibb Company, priority 2022, published 2025).

This test concerns the target T1, CCDC6-RET fusion expressing papillary thyroid carcinoma (TPC-1) cell line (Homo sapiens, UniProt P07949).
T1 construct: RET protein abundance (and therefore degradation) directly corresponds to luminescence intensity; CCDC6 (fusion partner, N-terminal part); endogenous in cells; host or cells: TPC-1 (papillary thyroid carcinoma), parental; the other entry of the earlier key: CCDC6 (Q16204, Coiled-coil domain-containing protein 6)
T1 sequence (P07949 with tags, fused parts or gaps): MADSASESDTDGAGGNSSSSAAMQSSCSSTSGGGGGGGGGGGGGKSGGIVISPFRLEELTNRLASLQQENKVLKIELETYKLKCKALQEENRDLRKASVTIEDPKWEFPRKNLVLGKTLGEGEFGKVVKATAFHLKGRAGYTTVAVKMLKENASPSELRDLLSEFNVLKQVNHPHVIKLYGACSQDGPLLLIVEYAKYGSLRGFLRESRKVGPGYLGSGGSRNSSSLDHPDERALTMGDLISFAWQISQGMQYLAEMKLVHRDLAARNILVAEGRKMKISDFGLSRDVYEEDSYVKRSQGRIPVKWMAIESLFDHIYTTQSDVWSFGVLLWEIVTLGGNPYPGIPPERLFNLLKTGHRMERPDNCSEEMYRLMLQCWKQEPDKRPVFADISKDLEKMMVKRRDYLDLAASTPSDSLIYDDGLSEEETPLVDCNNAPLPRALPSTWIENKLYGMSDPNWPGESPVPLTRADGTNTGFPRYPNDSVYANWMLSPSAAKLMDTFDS
The experiment in a line: Cellular RET degradation assay (AlphaLISA Surefire Ultra, tRET) in TPC-1/CCDC6-RET cells. Type of test: cell-based. The settings on record: TPC1, maximum % degradation (YMax) from 4-parameter logistic fit, parental TPC-1/CCDC6-RET cells, 24 hrs treatment, read-out: Cell Density TPC-1/CCDC6-RET YMax (%). How it is done: Cellular RET degradation compound potency was determined using the bead-based luminescent amplification assay—AlphaLISA Surefire Ultra Detection Kit (Perkin-Elmer). The CCDC6-RET fusion expressing papillary thyroid carcinoma (TPC-1) cell line was selected for screening of potential degraders: Parental (TPC-1/CCDC6-RET). Cells were plated in 384 well culture plates (Greiner Bio-One) at 10,000 cells/well in 50ul/well DMEM (Fisher Scientific) with 2% FBS serum (Gibco). After cellular adhesion (4 hrs), cells were treated with compound by dispensing 25nl of serially diluted compound (1:3 dilution: 1 ipoint) directly into the cell culture wells using an Echo-655 acoustic liquid dispenser (Beckman). Low normalization wells were media only and high normalization wells were cells treated with DMSO only. Treated cell plates were placed in an incubator at 37C and 5% CO2 for 24 hrs. At 24 hrs, cell media was removed by a FELIX automated liquid hander (Analytik Jena) and 25ul of cell lysis buffer (provided in AlphaLisa kit) was added to each well. 5ul cell lysate were transferred into a 384-well microplate (Perkin Elmer) before addition of 2.5ul AlphaLISA Acceptor Bead mix. The plates were sealed and kept at room temperature for 1 hr before addition of donor bead mixture. Donor bead addition was performed in the dark and incubated for >1 hr before AlphaLISA luminescence was measured on an Envision plate reader with an Alphascreen aperture at RT (excitation 680 nm, emission 615 nm). RET protein abundance (and therefore degradation) directly corresponds to luminescence intensity.
Intensities were normalized relative to the average values from 16 wells containing media alone (blank-low) and 16 wells containing cells +DMSO (high). % Degradation for each well was determined using the standard equation, where
DC50 (IC50) values for each compound tested are calculated by analyzing plots of % degradation versus compound concentration, and fitting to the standard 4-parameter logistic curve where,
Top and bottom are the % degradation at infinitely large and infinitely small compound concentrations, respectively, while Halfmax is the compound concentration yielding % degradation corresponding tob½ Top-Bottom, and N is the Hill coefficient. DC50 values are calculated according to the relationship,
Compound replicates were performed in independent assays. Maximum degradation (YMax) was defined as the maximal % degradation value from the 4-parameter logistic equation, as previously described.
The half-maximal degradation concentration (DC50) and % degradation response (Ymax) are included in Table 3.
For the compound `COCc1ccc(NC(=O)c2c(C#CC3CCN(C(=O)CCCCCCN4CCN(c5ccc6c(c5)CN(C5CCC(=O)NC5=O)C6=O)CC4)CC3)c(C(C)C)n3ncnc(N)c23)cc1` (stereo not shown) [Example 1], the Dmax amounted to 84.5%.
The figure for `COCc1ccc(NC(=O)c2c(C#CC3CCN(C(=O)CCCCCCN4CCC(c5ccc6c(c5)CN(C5CCC(=O)NC5=O)C6=O)CC4)CC3)c(C(C)C)n3ncnc(N)c23)cc1` (stereo not shown) [Example 2, 4-amino-6-((1-(7-(4-(2-(2,6-dioxopiperidin-3-yl)-1-oxoisoindolin-5-yl)piperidin-1-yl)heptanoyl)piperidin-4-yl)ethynyl)-7-isopropyl-N-(4-(methoxymethyl)phenyl)pyrrolo[2,1-f][1,2,4]triazine-5-carboxamide] is 87.4%; for `COCc1ccc(NC(=O)c2c(C#CC3CCN(C(=O)CCCCCCN4CCN(c5ccc6c(c5)C(=O)N(C5CCC(=O)NC5=O)C6)CC4)CC3)c(C(C)C)n3ncnc(N)c23)cc1` (stereo not shown) [Example 3, 4-amino-6-((1-(7-(4-(2-(2,6-dioxopiperidin-3-yl)-3-oxoisoindolin-5-yl)piperazin-1-yl)heptanoyl)piperidin-4-yl)ethynyl)-7-isopropyl-N-(4-(methoxymethyl)phenyl)pyrrolo[2,1-f][1,2,4]triazine-5-carboxamide] it is 91.8%.
The figure for `COCc1ccc(NC(=O)c2c(C#CC3CCN(C(=O)CCCCCCN4CCC(c5ccc6c(c5)C(=O)N(C5CCC(=O)NC5=O)C6)CC4)CC3)c(C(C)C)n3ncnc(N)c23)cc1` (stereo not shown) [Example 4, 4-amino-6-((1-(7-(4-(2-(2,6-dioxopiperidin-3-yl)-3-oxoisoindolin-5-yl)piperidin-1-yl)heptanoyl)piperidin-4-yl)ethynyl)-7-isopropyl-N-(4-(methoxymethyl)phenyl)pyrrolo[2,1-f][1,2,4]triazine-5-carboxamide] is 97.6%; for `COCc1ccc(NC(=O)c2c(C#CC3CCN(C(=O)CCCCN4CCN(c5ccc6c(c5)CN(C5CCC(=O)NC5=O)C6=O)CC4)CC3)c(C(C)C)n3ncnc(N)c23)cc1` (stereo not shown) [Example 5, 4-amino-6-((1-(5-(4-(2-(2,6-dioxopiperidin-3-yl)-1-oxoisoindolin-5-yl)piperazin-1-yl)pentanoyl)piperidin-4-yl)ethynyl)-7-isopropyl-N-(4-(methoxymethyl)phenyl)pyrrolo[2,1-f][1,2,4]triazine-5-carboxamide] it is 79.9%; for `COCc1ccc(NC(=O)c2c(C#CC3CCN(C(=O)CCCCN4CCN(c5ccc6c(c5)C(=O)N(C5CCC(=O)NC5=O)C6)CC4)CC3)c(C(C)C)n3ncnc(N)c23)cc1` (stereo not shown) [Example 6, 4-amino-6-((1-(5-(4-(2-(2,6-dioxopiperidin-3-yl)-3-oxoisoindolin-5-yl)piperazin-1-yl)pentanoyl)piperidin-4-yl)ethynyl)-7-isopropyl-N-(4-(methoxymethyl)phenyl)pyrrolo[2,1-f][1,2,4]triazine-5-carboxamide] it is 97.3%.
Regarding `COCc1ccc(NC(=O)c2c(C#CC3CCN(C(=O)CCCCN4CCC(c5ccc6c(c5)C(=O)N(C5CCC(=O)NC5=O)C6)CC4)CC3)c(C(C)C)n3ncnc(N)c23)cc1` (stereo not shown) [Example 7, 4-amino-6-((1-(5-(4-(2-(2,6-dioxopiperidin-3-yl)-3-oxoisoindolin-5-yl)piperidin-1-yl)pentanoyl)piperidin-4-yl)ethynyl)-7-isopropyl-N-(4-(methoxymethyl)phenyl)pyrrolo[2,1-f][1,2,4]triazine-5-carboxamide], the Dmax worked out at 90.1%.
The figure for `COCc1ccc(NC(=O)c2c(C#CC3CCN(C(=O)CCCCN4CCC(c5ccc6c(c5)CN(C5CCC(=O)NC5=O)C6=O)CC4)CC3)c(C(C)C)n3ncnc(N)c23)cc1` (stereo not shown) [Example 8, 4-amino-6-((1-(5-(4-(2-(2,6-dioxopiperidin-3-yl)-1-oxoisoindolin-5-yl)piperidin-1-yl)pentanoyl)piperidin-4-yl)ethynyl)-7-isopropyl-N-(4-(methoxymethyl)phenyl)pyrrolo[2,1-f][1,2,4]triazine-5-carboxamide] is 86.3%.
As for `COCc1ccc(NC(=O)c2c(C#CC3CCN(C(=O)CN4CCC5(CC4)CCN(c4ccc6c(c4)CN(C4CCC(=O)NC4=O)C6=O)CC5)CC3)c(C(C)C)n3ncnc(N)c23)cc1` (stereo not shown) [Example 9, 4-amino-6-((1-(2-(9-(2-(2,6-dioxopiperidin-3-yl)-1-oxoisoindolin-5-yl)-3,9-diazaspiro[5.5]undecan-3-yl)acetyl)piperidin-4-yl)ethynyl)-7-isopropyl-N-(4-(methoxymethyl)phenyl)pyrrolo[2,1-f][1,2,4]triazine-5-carboxamide], the Dmax was 79.1%.
The figure for `COCc1ccc(NC(=O)c2c(C#CC3CCN(C(=O)CCN4CCC5(CC4)CCN(c4ccc6c(c4)CN(C4CCC(=O)NC4=O)C6=O)CC5)CC3)c(C(C)C)n3ncnc(N)c23)cc1` (stereo not shown) [Example 10, 4-amino-6-((1-(3-(9-(2-(2,6-dioxopiperidin-3-yl)-1-oxoisoindolin-5-yl)-3,9-diazaspiro[5.5]undecan-3-yl)propanoyl)piperidin-4-yl)ethynyl)-7-isopropyl-N-(4-(methoxymethyl)phenyl)pyrrolo[2,1-f][1,2,4]triazine-5-carboxamide] is 78.9%.
